In ChEMBL document CHEMBL3627685, “Identification of a molecular target of kurahyne, an apoptosis-inducing lipopeptide from marine cyanobacterial assemblages” (Bioorg Med Chem Lett, 2015):
Active and inactive are the calls of the source. No cut-off for these calls is given here. Starred links: 1 amine or outer side, 2 acyl side, 3 side chain; linkers in the order of their positions; H or OH if unused. Non-standard residues stand in square brackets, D forms with d. Residues, ends and D or L forms follow the SMILES beside them. *: point of attachment. X2 = O=C(O)c1cc(N*)ccc1-c1c2ccc(=O)cc-2oc2cc(O)ccc12; Pyrrolidine(2S-propanoyl) = CCC(=O)[C@@H]1CCCN1*; Biotin = O=C1N[C@H]2[C@H](CS[C@H]2CCCCC(=O)*)N1; X3 = C/C(=C\CCCc1cn(CCCN[*:1])nn1)C(=O)[*:2]; NMeI = CC[C@H](C)[C@H](NC)C(=O)O; PEG4 = NCCOCCOCCOCCOCCC(=O)O; NMeV = CN[C@H](C(=O)O)C(C)C; CO = O=C([*:1])[*:2]

Assays:
[1] = biological target: Sarcoplasmic/endoplasmic reticulum calcium ATPase 1 (Oryctolagus cuniculus) (UniProt P04191); assay: Inhibition of ATPase activity of SERCA1a in rabbit sarcoplasmic reticulum vesicles at 30 uM measured for 3 mins by lactate dehydrogenase/pyruvate kinase coupled assay
Sequence of Sarcoplasmic/endoplasmic reticulum calcium ATPase 1 (Oryctolagus cuniculus) (P04191 whole entry): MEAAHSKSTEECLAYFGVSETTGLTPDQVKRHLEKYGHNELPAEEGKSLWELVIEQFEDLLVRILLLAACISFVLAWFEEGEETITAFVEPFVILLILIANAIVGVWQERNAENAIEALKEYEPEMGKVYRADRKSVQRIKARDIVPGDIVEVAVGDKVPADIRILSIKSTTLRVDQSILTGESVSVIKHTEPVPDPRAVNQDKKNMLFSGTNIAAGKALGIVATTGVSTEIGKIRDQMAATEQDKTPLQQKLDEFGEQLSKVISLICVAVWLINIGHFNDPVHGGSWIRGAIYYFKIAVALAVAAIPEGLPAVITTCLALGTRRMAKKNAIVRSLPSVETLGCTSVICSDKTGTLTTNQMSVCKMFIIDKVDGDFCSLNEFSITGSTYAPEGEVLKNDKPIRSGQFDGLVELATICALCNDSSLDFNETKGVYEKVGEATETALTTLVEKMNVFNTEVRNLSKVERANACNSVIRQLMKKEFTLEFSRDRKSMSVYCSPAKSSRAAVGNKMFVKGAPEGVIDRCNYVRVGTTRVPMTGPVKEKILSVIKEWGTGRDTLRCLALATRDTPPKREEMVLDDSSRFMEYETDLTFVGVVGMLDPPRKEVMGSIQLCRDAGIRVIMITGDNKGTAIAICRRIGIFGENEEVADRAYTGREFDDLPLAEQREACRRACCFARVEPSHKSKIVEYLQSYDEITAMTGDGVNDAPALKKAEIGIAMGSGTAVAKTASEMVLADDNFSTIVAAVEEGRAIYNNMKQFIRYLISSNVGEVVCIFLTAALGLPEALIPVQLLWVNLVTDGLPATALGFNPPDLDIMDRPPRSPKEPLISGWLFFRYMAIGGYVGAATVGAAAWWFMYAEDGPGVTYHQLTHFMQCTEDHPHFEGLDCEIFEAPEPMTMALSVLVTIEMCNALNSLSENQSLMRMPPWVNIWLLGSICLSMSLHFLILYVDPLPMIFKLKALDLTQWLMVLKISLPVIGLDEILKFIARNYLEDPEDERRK

HeLa [2] = assay: Induction of endoplasmic reticulum stress in human HeLa cells assessed as upregulation of CHOP mRNA expression at 1 uM after 6 hrs by RT-PCR analysis; assay type: functional, cell-based
HeLa [3] = assay: Induction of endoplasmic reticulum stress in human HeLa cells assessed as upregulation of Bip mRNA expression at 1 uM after 6 hrs by RT-PCR analysis; assay type: functional, cell-based
HeLa S3 [4] = assay: Induction of Ca2+ release from endoplasmic reticulum into cytosol in human HeLaS3 cells at 1 uM by fura-2/AM-based spectrofluorometric analysis; assay type: functional, cell-based
[5] = Cytotoxicity against human MKN74 cells assessed as growth inhibition by sulforhodamine B assay; assay type: functional; settings: MKN-74
ACHN = assay: Cytotoxicity against human ACHN cells assessed as growth inhibition by sulforhodamine B assay; assay type: functional
HeLa [6] = assay: Induction of endoplasmic reticulum stress in human HeLa cells assessed as upregulation of Bip mRNA expression at 10 uM after 6 hrs by RT-PCR analysis; assay type: functional, cell-based
SNB-75 = assay: Cytotoxicity against human SNB75 cells assessed as growth inhibition by sulforhodamine B assay; assay type: functional
HeLa [7] = assay: Cytotoxicity against human HeLa cells assessed as growth inhibition after 72 hrs by MTT assay; assay type: functional, cell-based
HCT-116 = assay: Cytotoxicity against human HCT116 cells assessed as growth inhibition by sulforhodamine B assay; assay type: functional
[8] = Cytotoxicity against human HBC4 cells assessed as growth inhibition by sulforhodamine B assay; assay type: functional
NCI-H23 = assay: Cytotoxicity against human NCI-H23 cells assessed as growth inhibition by sulforhodamine B assay; assay type: functional
OVCAR-8 = assay: Cytotoxicity against human OVCAR8 cells assessed as growth inhibition by sulforhodamine B assay; assay type: functional
[9] = Cytotoxicity against human RXF631L cells assessed as growth inhibition by sulforhodamine B assay; assay type: functional; settings: RXF 631
[10] = biological target: Sarcoplasmic/endoplasmic reticulum calcium ATPase 1 (Oryctolagus cuniculus) (UniProt P04191); assay: Inhibition of ATPase activity of SERCA1a in rabbit sarcoplasmic reticulum vesicles measured for 3 mins by lactate dehydrogenase/pyruvate kinase coupled assay
HCC 2998 = assay: Cytotoxicity against human HCC2998 cells assessed as growth inhibition by sulforhodamine B assay; assay type: functional
HeLa [11] = assay: Induction of endoplasmic reticulum stress in human HeLa cells assessed as upregulation of CHOP mRNA expression at 10 uM after 6 hrs by RT-PCR analysis; assay type: functional, cell-based
U-251 = assay: Cytotoxicity against human U251 cells assessed as growth inhibition by sulforhodamine B assay; assay type: functional
HCT-15 = assay: Cytotoxicity against human HCT15 cells assessed as growth inhibition by sulforhodamine B assay; assay type: functional
[12] = Cytotoxicity against human DMS114 cells assessed as growth inhibition by sulforhodamine B assay; assay type: functional; settings: DMS-114
A549 = assay: Cytotoxicity against human A549 cells assessed as growth inhibition by sulforhodamine B assay; assay type: functional
NCI-H522 = assay: Cytotoxicity against human NCI-H522 cells assessed as growth inhibition by sulforhodamine B assay; assay type: functional
SF-295 = assay: Cytotoxicity against human SF295 cells assessed as growth inhibition by sulforhodamine B assay; assay type: functional
PC-3 = assay: Cytotoxicity against human PC3 cells assessed as growth inhibition by sulforhodamine B assay; assay type: functional
[13] = Cytotoxicity against human BSY1 cells assessed as growth inhibition by sulforhodamine B assay; assay type: functional; settings: BSY-1
[14] = Cytotoxicity against human MKN45 cells assessed as growth inhibition by sulforhodamine B assay; assay type: functional; settings: MKN-45
[15] = Cytotoxicity against human SNB78 cells assessed as growth inhibition by sulforhodamine B assay; assay type: functional; settings: SNB-78
HL-60 = assay: Cytotoxicity against human HL60 cells assessed as growth inhibition after 72 hrs by MTT assay; assay type: functional, cell-based; settings: HL-60, 72 h
SF-268 = assay: Cytotoxicity against human SF268 cells assessed as growth inhibition by sulforhodamine B assay; assay type: functional
LOX IMVI = assay: Cytotoxicity against human LOXIMVI cells assessed as growth inhibition by sulforhodamine B assay; assay type: functional
MDA-MB-231 = assay: Cytotoxicity against human MDA-MB-231 cells assessed as growth inhibition by sulforhodamine B assay; assay type: functional
NCI-H226 = assay: Cytotoxicity against human NCI-H226 cells assessed as growth inhibition by sulforhodamine B assay; assay type: functional
[16] = Cytotoxicity against human DMS273 cells assessed as growth inhibition by sulforhodamine B assay; assay type: functional; settings: DMS-273
HT-29 = assay: Cytotoxicity against human HT-29 cells assessed as growth inhibition by sulforhodamine B assay; assay type: functional
SK-OV-3 = assay: Cytotoxicity against human SKOV3 cells assessed as growth inhibition by sulforhodamine B assay; assay type: functional
OVCAR-4 = assay: Cytotoxicity against human OVCAR4 cells assessed as growth inhibition by sulforhodamine B assay; assay type: functional
NCI-H460 = assay: Cytotoxicity against human NCI-H460 cells assessed as growth inhibition by sulforhodamine B assay; assay type: functional
KM12 = assay: Cytotoxicity against human KM12 cells assessed as growth inhibition by sulforhodamine B assay; assay type: functional
[17] = Cytotoxicity against human MKN28 cells assessed as growth inhibition by sulforhodamine B assay; assay type: functional; settings: MKN-28
[18] = Cytotoxicity against human HBC5 cells assessed as growth inhibition by sulforhodamine B assay; assay type: functional
[19] = Cytotoxicity against mouse BMDM assessed as growth inhibition after 72 hrs by MTT assay
SF-539 = assay: Cytotoxicity against human SF539 cells assessed as growth inhibition by sulforhodamine B assay; assay type: functional
HeLa S3 [20] = assay: Induction of Ca2+ release from endoplasmic reticulum into cytosol in human HeLaS3 cells by fura-2/AM-based spectrofluorometric analysis; assay type: functional, cell-based
OVCAR-3 = assay: Cytotoxicity against human OVCAR3 cells assessed as growth inhibition by sulforhodamine B assay; assay type: functional
MCF7 = assay: Cytotoxicity against human MCF7 cells assessed as growth inhibition by sulforhodamine B assay; assay type: functional
OVCAR-5 = assay: Cytotoxicity against human OVCAR5 cells assessed as growth inhibition by sulforhodamine B assay; assay type: functional
[21] = Cytotoxicity against human MKN1 cells assessed as growth inhibition by sulforhodamine B assay; assay type: functional; settings: MKN-1
[22] = Cytotoxicity against human MKN7 cells assessed as growth inhibition by sulforhodamine B assay; assay type: functional; settings: MKN-7
DU-145 = assay: Cytotoxicity against human DU145 cells assessed as growth inhibition by sulforhodamine B assay; assay type: functional
St-4 = assay: Cytotoxicity against human St-4 cells assessed as growth inhibition by sulforhodamine B assay; assay type: functional
HeLa S3 [23] = assay: Induction of Ca2+ release from endoplasmic reticulum into cytosol in human HeLaS3 cells at 10 uM by fura-2/AM-based spectrofluorometric analysis; assay type: functional, cell-based
HeLa [24] = assay: Binding affinity to SERCA in human HeLa cells at […] after 12 hrs by immunoblot analysis; assay type: cell-based
HeLa [25] = assay: Induction of endoplasmic reticulum stress in human HeLa cells assessed as upregulation of Bip mRNA expression at 100 uM after 6 hrs by RT-PCR analysis; assay type: functional, cell-based
[26] = Drug uptake in endoplasmic reticulum in human HeLa cells at 10 uM after 6 hrs by DsRed/DAPI dye-based fluorescence microscopic analysis; assay type: ADME, cell-based

C/C=C(/C)C(=O)O[C@H]1C(C)=C2[C@H]([C@@H]1OC(=O)CCCCCCC)[C@@](C)(OC(C)=O)C[C@H](OC(=O)CCC)[C@@]1(O)[C@H]2OC(=O)[C@@]1(C)O
inhibition [1]: Active
Activity (HeLa [2]): Active
Activity (HeLa [3]): Active
Activity (HeLa S3 [4]): Active

C#CCCC/C=C(\C)C(=O)N(C)[C@H](C(=O)N(C)[C@H](C(=O)N(C)[C@H](C(=O)N(C)[C@H](C(=O)N1CCC[C@H]1C(=O)N1CCC[C@H]1C(=O)CC)C(C)C)C(C)C)[C@@H](C)CC)[C@@H](C)CC (HELM PEPTIDE1{[C#CCCC/C=C(\C)C(=O)[*:2]].[meI].[meI].[meV].[meV].P.[CCC(=O)[C@@H]1CCCN1[*:1]]}$$$$V2.0)
GI50 [5]: 3.72 µM
GI50 (ACHN): 13.5 µM
Activity (HeLa [6]): Active
GI50 (SNB-75): 14.5 µM
IC50 (HeLa [7]): 3.9 µM
GI50 (HCT-116): 5.13 µM
GI50 [8]: 12.3 µM
GI50 (NCI-H23): 13.8 µM
GI50 (OVCAR-8): 14.5 µM
GI50 [9]: 5.89 µM
inhibition [10]: Dose-dependent effect
GI50 (HCC 2998): 14.8 µM
Activity (HeLa [11]): Active
GI50 (U-251): 8.32 µM
GI50 (HCT-15): 11.5 µM
GI50 [12]: 4.9 µM
GI50 (A549): 7.24 µM
GI50 (NCI-H522): 2.4 µM
GI50 (SF-295): 10.7 µM
GI50 (PC-3): 4.47 µM
GI50 [13]: 3.09 µM
GI50 [14]: 7.94 µM
GI50 [15]: 16.6 µM
IC50 (HL-60): 1.5 µM
GI50 (SF-268): 5.62 µM
GI50 (LOX IMVI): 3.89 µM
GI50 (MDA-MB-231): 4.17 µM
GI50 (NCI-H226): 7.24 µM
GI50 [16]: 5.5 µM
GI50 (HT-29): 4.47 µM
GI50 (SK-OV-3): 11.2 µM
GI50 (OVCAR-4): 11 µM
GI50 (NCI-H460): 9.55 µM
GI50 (KM12): 12.9 µM
GI50 [17]: 12.9 µM
GI50 [18]: 10.5 µM
IC50 [19]: 1.96 µM
GI50 (SF-539): 10 µM
Activity (HeLa S3 [20]): Dose-dependent effect
GI50 (OVCAR-3): 6.61 µM
GI50 (MCF7): 3.98 µM
GI50 (OVCAR-5): 11.2 µM
GI50 [21]: 15.1 µM
GI50 [22]: 7.41 µM
GI50 (DU-145): 13.8 µM
GI50 (St-4): 13.2 µM

CC(=O)C1=C(O)[C@@H]2[C@H]3c4c[nH]c5cccc(c45)C[C@H]3C(C)(C)N2C1=O
Activity (HeLa S3 [23]): Active

CCC(=O)[C@@H]1CCCN1C(=O)[C@@H]1CCCN1C(=O)[C@H](C(C)C)N(C)C(=O)[C@H](C(C)C)N(C)C(=O)[C@H]([C@@H](C)CC)N(C)C(=O)[C@H]([C@@H](C)CC)N(C)C(=O)/C(C)=C/CCCc1cn(CCCNC(=O)CCOCCOCCOCCOCCNC(=O)CCCC[C@@H]2SC[C@@H]3NC(=O)N[C@@H]32)nn1 ({Biotin-PEG4}-[X3][NMeI][NMeI][NMeV][NMeV]P-{Pyrrolidine(2S-propanoyl)})
Activity (HeLa [24]): Active

C#CCCC/C=C(\C)C(=O)N(C)[C@H](C(=O)N(C)[C@H](C(=O)N(C)[C@H](C(=O)N(C)[C@H](C(=O)N1CCC[C@H]1C(=O)N1CCC[C@H]1/C(CC)=N/OCC(=O)NCCCCCNC(=S)Nc1ccc(-c2c3ccc(=O)cc-3oc3cc(O)ccc23)c(C(=O)O)c1)C(C)C)C(C)C)[C@@H](C)CC)[C@@H](C)CC
Activity (HeLa [25]): inactive

CCC(=O)[C@@H]1CCCN1C(=O)[C@@H]1CCCN1C(=O)[C@H](C(C)C)N(C)C(=O)[C@H](C(C)C)N(C)C(=O)[C@H]([C@@H](C)CC)N(C)C(=O)[C@H]([C@@H](C)CC)N(C)C(=O)/C(C)=C/CCCc1cn(CCCNC(=O)Nc2ccc(-c3c4ccc(=O)cc-4oc4cc(O)ccc34)c(C(=O)O)c2)nn1 ({X2-CO}-[X3][NMeI][NMeI][NMeV][NMeV]P-{Pyrrolidine(2S-propanoyl)})
Drug uptake [26]: Active
Activity (HeLa [25]): Active
